Active and inactive are the calls of the source. The calls are words filed in the database; no cut-off is given here.
Assays:
Raphanus raphanistrum [1] = assay: Resistance index, ratio of I50 for ALS Ala122Tyr mutant in ALS-herbicide-resistant Raphanus raphanistrum WARR30 (wild radish) expressing ALS Ala122Tyr mutant to I50 for ALS-herbicide-susceptible Raphanus raphanistrum (wild radish)
Raphanus raphanistrum [2] = assay: Herbicidal activity against two to three leaf stage ALS-herbicide-susceptible Raphanus raphanistrum WARR7 (wild radish) assessed as reduction in survival measured 3 weeks after compound treatment; format: functional
Raphanus raphanistrum [3] = assay: Herbicidal activity against two to three leaf stage ALS-herbicide-susceptible Raphanus raphanistrum WARR7 (wild radish) assessed as reduction in dry weight of above-ground biomass measured 3 weeks after compound treatment; format: functional
Raphanus raphanistrum [4] = assay: Herbicidal activity against two to three leaf stage ALS-herbicide-resistant Raphanus raphanistrum WARR30 (wild radish) expressing ALS Ala122Tyr mutant assessed as reduction in survival measured 3 weeks after compound treatment; format: functional
Acetolactate synthase [5] = molecular target: Acetolactate synthase (Raphanus raphanistrum, UniProt J7HAW4, A122Y); assay: Inhibition of ALS Ala122Tyr mutant in ALS-herbicide-resistant Raphanus raphanistrum WARR30 (wild radish) expressing ALS Ala122Tyr mutant; details: read-out: I50
Raphanus raphanistrum [6] = assay: Herbicidal activity against two to three leaf stage ALS-herbicide-resistant Raphanus raphanistrum WARR30 (wild radish) expressing ALS Ala122Tyr mutant assessed as reduction in dry weight of above-ground biomass measured 3 weeks after compound treatment; format: functional
Acetolactate synthase [7] = molecular target: T1, Acetolactate synthase (Raphanus raphanistrum, UniProt J7HAW4); assay: Inhibition of ALS in ALS-herbicide-susceptible Raphanus raphanistrum […] (wild radish); details: pooled result: one value given for 2 cell lines, strains, targets or settings; read-out: I50
T1 sequence (J7HAW4 whole entry): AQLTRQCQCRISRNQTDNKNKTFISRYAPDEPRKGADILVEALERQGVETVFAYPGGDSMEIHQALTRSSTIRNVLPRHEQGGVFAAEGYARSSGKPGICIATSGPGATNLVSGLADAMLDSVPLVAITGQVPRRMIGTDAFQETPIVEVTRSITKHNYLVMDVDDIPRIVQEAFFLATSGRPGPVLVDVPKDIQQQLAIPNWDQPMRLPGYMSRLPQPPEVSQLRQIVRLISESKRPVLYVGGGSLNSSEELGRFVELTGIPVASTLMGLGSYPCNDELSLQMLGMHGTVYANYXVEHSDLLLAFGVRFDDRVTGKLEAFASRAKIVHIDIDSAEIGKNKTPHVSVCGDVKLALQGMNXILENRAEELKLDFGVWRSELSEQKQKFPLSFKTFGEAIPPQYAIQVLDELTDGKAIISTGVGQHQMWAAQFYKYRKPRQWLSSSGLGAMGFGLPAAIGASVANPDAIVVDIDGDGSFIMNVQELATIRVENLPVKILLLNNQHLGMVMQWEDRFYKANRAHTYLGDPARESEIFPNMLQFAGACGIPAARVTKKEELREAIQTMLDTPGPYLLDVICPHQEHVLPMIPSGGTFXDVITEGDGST

Raphanus raphanistrum [8] = assay: Herbicidal activity against two to three-leaf stage ALS-herbicide-susceptible Raphanus raphanistrum WARR7 (wild radish) assessed as reduction in survival at 0.625 g/ha measured 3 weeks after compound treatment; format: functional; details: WARR7, 504 h, read-out: GI
Raphanus raphanistrum [9] = assay: Herbicidal activity against two to three-leaf stage ALS-herbicide-resistant Raphanus raphanistrum WARR30 (wild radish) expressing ALS Ala122Tyr mutant assessed as reduction in survival at 640 g/ha measured 3 weeks after compound treatment; format: functional, organism-based
Raphanus raphanistrum [10] = assay: Herbicidal activity against two to three-leaf stage ALS-herbicide-resistant Raphanus raphanistrum WARR30 (wild radish) expressing ALS Ala122Tyr mutant assessed as reduction in survival at 20 g/ha measured 3 weeks after compound treatment; format: functional; details: WARR30, 504 h, read-out: GI
Raphanus raphanistrum [11] = assay: Herbicidal activity against two to three-leaf stage ALS-herbicide-resistant Raphanus raphanistrum WARR30 (wild radish) expressing ALS Ala122Tyr mutant assessed as reduction in survival at 1600 g/ha measured 3 weeks after compound treatment; format: functional; details: WARR30, 504 h, read-out: GI
Raphanus raphanistrum [12] = assay: Herbicidal activity against two to three-leaf stage ALS-herbicide-susceptible Raphanus raphanistrum WARR7 (wild radish) assessed as reduction in survival at 62 g/ha measured 3 weeks after compound treatment; format: functional, organism-based
Raphanus raphanistrum [13] = assay: Resistance index, ratio of LD50 for ALS-herbicide-resistant Raphanus raphanistrum WARR30 (wild radish) expressing ALS Ala122Tyr mutant to LD50 for ALS-herbicide-susceptible Raphanus raphanistrum (wild radish) WARR7; format: functional
Raphanus raphanistrum [14] = assay: Resistance index, ratio of GR50 for ALS-herbicide-resistant Raphanus raphanistrum WARR30 (wild radish) expressing ALS Ala122Tyr mutant to GR50 for ALS-herbicide-susceptible Raphanus raphanistrum (wild radish) WARR7; format: functional
Raphanus raphanistrum [15] = assay: Herbicidal activity against two to three-leaf stage ALS-herbicide-susceptible Raphanus raphanistrum WARR7 (wild radish) assessed as reduction in survival at 50 g/ha measured 3 weeks after compound treatment; format: functional, organism-based
Raphanus raphanistrum [16] = assay: Herbicidal activity against two to three-leaf stage ALS-herbicide-susceptible Raphanus raphanistrum WARR7 (wild radish) assessed as reduction in survival at 0.75 g/ha measured 3 weeks after compound treatment; format: functional; details: WARR7, 504 h, read-out: GI
Raphanus raphanistrum [17] = assay: Herbicidal activity against two to three-leaf stage ALS-herbicide-resistant Raphanus raphanistrum WARR30 (wild radish) expressing ALS Ala122Tyr mutant assessed as reduction in survival at 384 g/ha measured 3 weeks after compound treatment; format: functional; details: WARR30, 504 h, read-out: GI

## Cc1ccn2nc(S(=O)(=O)Nc3c(F)cccc3F)nc2n1
Raphanus raphanistrum [1]
  Ratio: > 60
Raphanus raphanistrum [2]
  Activity: Active
Raphanus raphanistrum [3]
  Activity: Active
Raphanus raphanistrum [4]
  Activity: inactive
Acetolactate synthase [5]
  IC50: > 100 µM
Raphanus raphanistrum [6]
  Activity: inactive
Acetolactate synthase [7]
  IC50: 1.66 µM

## COc1nc(C)nc(NC(=O)NS(=O)(=O)c2ccccc2Cl)n1 [CHLORSULFURON]
Raphanus raphanistrum [8]
  inhibition of growth at 0.625 g/ha: 72%
Raphanus raphanistrum [2]
  LD50: <0.625 g/ha
Raphanus raphanistrum [9]
  Activity: inactive
Raphanus raphanistrum [3]
  GR50: <0.625 g/ha
Raphanus raphanistrum [10]
  inhibition of growth at 20 g/ha: 15%
Raphanus raphanistrum [4]
  LD50: >640 g/ha
Raphanus raphanistrum [6]
  GR50: >640 g/ha

## COCc1cnc(C2=NC(C)(C(C)C)C(=O)N2)c(C(=O)O)c1 (centres undefined) [IMAZAMOX]
Raphanus raphanistrum [11]
  inhibition of growth at 1600 g/ha: 20%
Raphanus raphanistrum [12]
  Activity: Active
Raphanus raphanistrum [1]
  Ratio: > 21
Raphanus raphanistrum [2]
  LD50: 11.7 g/ha
Raphanus raphanistrum [3]
  GR50: <6.3 g/ha
Raphanus raphanistrum [4]
  LD50: >1600 g/ha
Raphanus raphanistrum [13]
  Ratio: >137
Acetolactate synthase [5]
  IC50: > 100 µM
Raphanus raphanistrum [6]
  GR50: >1600 g/ha
Raphanus raphanistrum [14]
  Ratio: >256
Acetolactate synthase [7]
  IC50: 4.78 µM

## CC(C)C1(C)N=C(c2ncccc2C(=O)O)NC1=O (centres undefined) [IMAZAPYR]
Raphanus raphanistrum [15]
  Activity: Active
Raphanus raphanistrum [1]
  Ratio: > 14.6
Raphanus raphanistrum [2]
  LD50: <63 g/ha
Raphanus raphanistrum [3]
  GR50: <63 g/ha
Raphanus raphanistrum [4]
  LD50: 1000 g/ha
Raphanus raphanistrum [13]
  Ratio: >16
Acetolactate synthase [5]
  IC50: > 100 µM
Raphanus raphanistrum [6]
  GR50: 486 g/ha
Raphanus raphanistrum [14]
  Ratio: >7.8
Acetolactate synthase [7]
  IC50: 6.84 µM

## CCc1cnc(C2=NC(C)(C(C)C)C(=O)N2)c(C(=O)O)c1 (centres undefined) [IMAZETHAPYR]
Raphanus raphanistrum [1]
  Ratio: > 741
Raphanus raphanistrum [2]
  Activity: Active
Raphanus raphanistrum [3]
  Activity: Active
Raphanus raphanistrum [4]
  Activity: inactive
Acetolactate synthase [5]
  IC50: > 1000 µM
Raphanus raphanistrum [6]
  Activity: inactive
Acetolactate synthase [7]
  IC50: 1.35 µM

## COc1cc(OC)n2nc(S(=O)(=O)Nc3c(Cl)ccc(C)c3Cl)nc2n1 [METOSULAM]
Raphanus raphanistrum [1]
  Ratio: > 94500
Raphanus raphanistrum [2]
  LD50: <0.75 g/ha
Raphanus raphanistrum [16]
  inhibition of growth at 0.75 g/ha: 95%
Raphanus raphanistrum [3]
  GR50: <0.75 g/ha
Raphanus raphanistrum [4]
  LD50: >384 g/ha
Raphanus raphanistrum [13]
  Ratio: >512
Raphanus raphanistrum [17]
  inhibition of growth at 384 g/ha: 10%
Acetolactate synthase [5]
  IC50: 94 µM
Raphanus raphanistrum [6]
  GR50: >384 g/ha
Raphanus raphanistrum [14]
  Ratio: >512
Acetolactate synthase [7]
  IC50: < 0.001 µM

## Cc1cc(C)nc(NC(=O)NS(=O)(=O)c2ccccc2C(=O)O)n1 [SULFOMETURON]
Raphanus raphanistrum [1]
  Ratio: > 4350
Raphanus raphanistrum [2]
  Activity: Active
Raphanus raphanistrum [3]
  Activity: Active
Raphanus raphanistrum [4]
  Activity: inactive
Acetolactate synthase [5]
  IC50: > 100 µM
Raphanus raphanistrum [6]
  Activity: inactive
